According to patent publication US10342804B2, “Steroid compound for use in the treatment of hepatic encephalopathy” (Umecrine Cognition AB, priority 2014, dated 2019):

Key:
[1] = Exposure in plasma and brain tissue, hyperammonemic rats (Example 13); format: in vivo, rat; conditions: for Total concentration in plasma: at the time for behavioral testing
Protocol: (§1) Male Wistar rats (140-160 g) were made hyperammonemic by feeding them a diet containing ammonium acetate (30% by weight) (Felipo et al, European Journal of Biochemistry, 1988, 176, 567-571).
(§2) 3α-ethynyl-3β-hydroxyandrostan-17-one oxime in sesame oil was administered by subcutaneous injections in the back of the rats, once daily. Two different sets of experiments were performed in hyperammonemic rats. In the first set four groups of rats were used: 1) control rats injected with vehicle; 2) hyperammonemic rats injected with vehicle; 3) control rats injected with 20 mg/Kg of 3α-ethynyl-3β-hydroxyandrostan-17-one oxime and 4) hyperammonemic rats injected with 20 mg/Kg of 3α-ethynyl-3β-hydroxyandrostan-17-one oxime.
In the second set of experiments five groups of rats were used: 1) control rats injected with vehicle; 2) hyperammonemiac rats injected with vehicle and 3-5) hyperammonemic rats injected with 3, 10 or 20 mg/Kg of 3α-ethynyl-3β-hydroxyandrostan-17-one oxime. In each experiment 6-8 rats per group were used.
At the end of the treatment period plasma was collected from the tail vein, and after sacrifice by decapitation brains were collected and immediately frozen on dry ice. For analysis of 3α-ethynyl-3β-hydroxyandrostan-17-one oxime exposure, brain tissue was homogenized with a 1:4 ratio of tissue: PBS (pH 7.4) and then extracted with a 2-fold volume of methanol:acetonitrile (1:1), while plasma was protein-precipitated with a 3-fold volume with acetonitrile. Analyses were performed by Waters ACQUITY UPLC+Waters XEVO-TQS triple quadrupole mass spectrometer (Admescope Oy, Oulu, Finland). For calculations of the amount of free 3α-ethynyl-3β-hydroxyandrostan-17-one oxime exposure in the brain the fraction unbound (Fb) in brain homogenates were determined by dialysis, Fub in HA=[…] and Fub in PCS=1.43% (Admescope Oy, Oulu, Finland).

[2] = test system: blood ammonia; assay: Blood ammonia, hyperammonemic rats (Example 12); format: in vivo, rat; conditions: 20 mg/Kg
Protocol: as §1, §2
Blood ammonia was measured using the kit II Ammonia Arkray test (PocketChem BA, Arkray) using 20 μL of fresh blood following manufacturer's specifications.

C#C[C@]1(O)CC[C@@]2(C)C(CC[C@@H]3[C@@H]2CC[C@]2(C)/C(=N\O)CC[C@@H]32)C1 (stereo partly drawn) [3α-ethynyl-3β-hydroxyandrostan-17-one oxime]
Unbound concentration in the brain tissue ([1]; 3 mg/Kg s.c. once daily): 6.1 ± 1.4 nmol/kg
Total concentration in plasma ([1]; 3 mg/Kg s.c. once daily): 0.34 ± 0.03 µM
Unbound concentration in the brain tissue ([1]; 10 mg/Kg s.c. once daily): 11.6 ± 1.4 nmol/kg
Total concentration in plasma ([1]; 10 mg/Kg s.c. once daily): 1.08 ± 0.11 µM
Unbound concentration in the brain tissue ([1]; 20 mg/Kg s.c. once daily): 23 ± 5 nmol/kg
Total concentration in plasma ([1]; 20 mg/Kg s.c. once daily): 1.95 ± 0.61 µM
Blood ammonia levels [2]: 139 ± 14 µM
